The text below walks through data of patent US8552002B2 (Novartis AG, priority 2004, dated 2013).

Holding throughout (type): biochemical
The target of one test is T1, KDR (Homo sapiens, UniProt P35968).
T1 construct: expressed in transfected cells; host or cells: CHO cells
Put plainly: Inhibitory activity against KDR (VEGF-R2), in vitro data of Examples 170 and 207. The conditions noted are these: 10 μM; Examples 171 to 206; read-out: KDR inhibition at 10 μM. The method in brief: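 KDR tyrosine phosphorylation detected by luminescence after overnight 4° C capture of 20 μg lysate protein with PY20:AP antibody. Lysates came from cells given compound for 2 h at 37° C, then final 20 ng/ml VEGF for 5 min; compound-free medium as control.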

Another test concerns the target T2, FGFR3 (K650E) (Homo sapiens, UniProt P22607, K650E).
T2 construct: amino acids 411-806 of the cytoplasmic domain of human FGFR-3, N-terminally fused to GST; made in house; host or cells: Sf9 insect cells (baculovirus)
The test is described as follows: Recombinant GST-FGFR-3-K650E tyrosine kinase assay (33P into poly(Glu,Tyr)). As to conditions: 10 μM; Examples 171 to 206; read-out: FGFR3 inhibition at 10 μM.

The next test concerns the target c-Abl (Homo sapiens, UniProt P00519). The test is described as follows: Inhibitory activity against c-Abl (Example 207). The conditions noted are these: Examples 171 to 206.

T2 sequence (P22607 411-806 K650E): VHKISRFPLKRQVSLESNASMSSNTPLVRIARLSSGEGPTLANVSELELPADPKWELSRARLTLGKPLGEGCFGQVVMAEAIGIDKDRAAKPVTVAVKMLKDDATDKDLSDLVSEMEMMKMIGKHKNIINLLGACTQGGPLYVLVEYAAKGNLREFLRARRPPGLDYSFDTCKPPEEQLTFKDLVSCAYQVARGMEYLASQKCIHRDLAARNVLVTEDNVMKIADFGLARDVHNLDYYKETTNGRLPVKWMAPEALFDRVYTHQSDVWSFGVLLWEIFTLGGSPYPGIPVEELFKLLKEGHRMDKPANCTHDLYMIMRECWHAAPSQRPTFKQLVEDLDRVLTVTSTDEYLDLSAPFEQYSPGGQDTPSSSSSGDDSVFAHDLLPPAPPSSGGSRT
c-Abl, sequence (P00519 whole entry): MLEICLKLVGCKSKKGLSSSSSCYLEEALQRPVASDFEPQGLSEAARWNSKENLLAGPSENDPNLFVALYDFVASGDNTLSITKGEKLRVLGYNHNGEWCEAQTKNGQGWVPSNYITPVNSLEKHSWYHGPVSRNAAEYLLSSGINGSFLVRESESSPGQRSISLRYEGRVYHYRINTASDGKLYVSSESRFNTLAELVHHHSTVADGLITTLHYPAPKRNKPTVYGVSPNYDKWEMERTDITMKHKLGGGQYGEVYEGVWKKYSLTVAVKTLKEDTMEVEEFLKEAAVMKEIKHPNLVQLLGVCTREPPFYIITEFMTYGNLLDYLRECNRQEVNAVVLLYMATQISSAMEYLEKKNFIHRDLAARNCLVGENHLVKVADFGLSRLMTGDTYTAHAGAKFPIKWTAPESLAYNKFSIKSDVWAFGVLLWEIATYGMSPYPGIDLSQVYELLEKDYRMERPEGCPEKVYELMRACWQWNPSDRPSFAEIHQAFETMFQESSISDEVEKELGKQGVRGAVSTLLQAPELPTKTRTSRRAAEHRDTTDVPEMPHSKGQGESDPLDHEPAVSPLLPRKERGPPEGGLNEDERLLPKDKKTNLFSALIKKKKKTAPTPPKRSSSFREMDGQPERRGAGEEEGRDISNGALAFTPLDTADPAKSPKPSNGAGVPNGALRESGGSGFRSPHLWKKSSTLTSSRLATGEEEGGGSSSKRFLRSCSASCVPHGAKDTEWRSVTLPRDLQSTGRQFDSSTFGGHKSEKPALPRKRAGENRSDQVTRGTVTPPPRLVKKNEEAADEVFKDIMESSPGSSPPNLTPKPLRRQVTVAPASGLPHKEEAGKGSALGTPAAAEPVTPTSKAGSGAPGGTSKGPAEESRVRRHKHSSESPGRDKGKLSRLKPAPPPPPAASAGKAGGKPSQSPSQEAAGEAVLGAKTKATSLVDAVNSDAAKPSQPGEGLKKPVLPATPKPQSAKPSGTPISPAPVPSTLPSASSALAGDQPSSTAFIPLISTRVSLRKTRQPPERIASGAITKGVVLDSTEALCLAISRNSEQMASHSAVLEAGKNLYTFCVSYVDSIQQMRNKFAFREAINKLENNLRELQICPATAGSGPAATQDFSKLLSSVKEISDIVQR
T1 sequence (P35968 20-1356): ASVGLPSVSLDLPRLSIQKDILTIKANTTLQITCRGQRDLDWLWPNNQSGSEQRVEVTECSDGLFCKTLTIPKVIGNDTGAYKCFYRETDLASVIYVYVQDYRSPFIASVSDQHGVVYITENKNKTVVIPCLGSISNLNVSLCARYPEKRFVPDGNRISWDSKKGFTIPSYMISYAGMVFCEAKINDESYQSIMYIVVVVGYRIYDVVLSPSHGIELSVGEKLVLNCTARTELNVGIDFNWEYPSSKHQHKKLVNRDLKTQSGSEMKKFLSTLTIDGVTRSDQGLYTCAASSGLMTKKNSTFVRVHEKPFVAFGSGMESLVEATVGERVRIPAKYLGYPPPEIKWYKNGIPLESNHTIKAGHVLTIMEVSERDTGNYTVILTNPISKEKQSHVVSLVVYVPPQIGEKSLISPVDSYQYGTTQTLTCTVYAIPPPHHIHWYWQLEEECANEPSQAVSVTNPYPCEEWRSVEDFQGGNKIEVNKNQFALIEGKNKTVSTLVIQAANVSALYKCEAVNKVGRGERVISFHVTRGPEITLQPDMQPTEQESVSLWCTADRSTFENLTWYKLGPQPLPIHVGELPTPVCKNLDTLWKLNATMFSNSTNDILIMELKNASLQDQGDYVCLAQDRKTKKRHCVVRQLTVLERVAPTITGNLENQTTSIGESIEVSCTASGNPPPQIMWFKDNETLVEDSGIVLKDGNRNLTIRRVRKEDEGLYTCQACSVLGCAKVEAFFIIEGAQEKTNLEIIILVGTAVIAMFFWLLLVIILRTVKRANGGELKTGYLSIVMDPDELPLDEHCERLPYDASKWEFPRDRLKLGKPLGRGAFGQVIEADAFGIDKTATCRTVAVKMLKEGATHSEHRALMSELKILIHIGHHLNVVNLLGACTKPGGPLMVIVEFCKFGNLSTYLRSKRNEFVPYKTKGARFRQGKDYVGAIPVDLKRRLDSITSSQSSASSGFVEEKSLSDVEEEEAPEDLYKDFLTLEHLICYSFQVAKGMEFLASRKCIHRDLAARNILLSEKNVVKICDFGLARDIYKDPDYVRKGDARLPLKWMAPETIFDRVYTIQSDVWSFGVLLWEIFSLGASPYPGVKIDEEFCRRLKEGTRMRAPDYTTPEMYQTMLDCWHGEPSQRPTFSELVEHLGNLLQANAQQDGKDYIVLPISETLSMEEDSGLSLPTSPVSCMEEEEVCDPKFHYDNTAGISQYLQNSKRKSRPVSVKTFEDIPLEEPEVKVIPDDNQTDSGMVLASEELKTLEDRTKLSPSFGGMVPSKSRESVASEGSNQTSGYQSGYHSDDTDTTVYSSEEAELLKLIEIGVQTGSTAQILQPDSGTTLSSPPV

As to `Cc1ccc(NC(=O)c2cccc(C(F)(F)F)c2)cc1NC(=O)N(CCc1ccccn1)c1cc(Nc2ccccc2)ncn1` [Example 190, N-{4-Methyl-3-[3-(6-phenylamino-pyrimidin-4-yl)-3-(2-pyridin-2-yl-ethyl)-ureido]-phenyl}-3-trifluoromethyl-benzamide], the inhibition (in general, the change of the read-out against control, counted positive when it falls) at 10 µM lay in the range of 87 to 100% at KDR, 56 to 98% at FGFR3 (K650E) and 79 to 100% on c-Abl.
Taken in the same sequence, the figures for `Cc1ccc(NC(=O)c2cccc(C(F)(F)F)c2)cc1NC(=O)N(C)c1cc(Nc2ccc(C(=O)N3CCN(C)CC3)cc2)ncn1` [Example 187, N-[4-Methyl-3-(3-methyl-3-{6-[4-(4-methyl-piperazine-1-carbonyl)-phenylamino]-pyrimidin-4-yl}-ureido)-phenyl]-3-trifluoromethyl-benzamide] were 87 to 100%, 56 to 98% and 79 to 100%.
In the case of `Cc1ccc(C(=O)Nc2cccc(C(F)(F)F)c2)cc1NC(=O)N(C)c1cc(Nc2ccc(N3CCN(C)CC3)cc2)ncn1` [Example 186, 4-Methyl-3-(3-methyl-3-{6-[4-(4-methyl-piperazin-1-yl)-phenylamino]-pyrimidin-4-yl}-ureido)-N-(3-trifluoromethyl-phenyl)-benzamide], the figures for the inhibition at 10 µM on KDR, on FGFR3 (K650E) and at c-Abl were 87 to 100%, 56 to 98% and 79 to 100%, respectively.
Taken in the same sequence, the figures for `Cc1ccc(C(=O)Nc2ccc(CN3CCN(C)CC3)c(C(F)(F)F)c2)cc1NC(=O)N(C)c1cc(N)ncn1` [Example 206, 3-[3-(6-Amino-pyrimidin-4-yl)-3-methyl-ureido]-4-methyl-N-[4-(4-methyl-piperazin-1-ylmethyl)-3-trifluoromethyl-phenyl]-benzamide] were 87 to 100%, 56 to 98% and 79 to 100%.
As to `COC(=O)Nc1cc(N(C)C(=O)Nc2cc(NC(=O)c3ccc(CN4CCN(C)CC4)c(C(F)(F)F)c3)ccc2C)ncn1` [Example 203, [6-(1-Methyl-3-{2-methyl-5-[4-(4-methyl-piperazin-1-ylmethyl)-3-trifluoromethyl-benzoylamino]-phenyl}-ureido)-pyrimidin-4-yl]-carbamic acid methyl ester], the inhibition at 10 µM at KDR was in the range of 87 to 100%; on FGFR3 (K650E), 56 to 98%; against c-Abl it was 79 to 100%.
In the case of `Cc1ccc(NC(=O)c2cccc(C(F)(F)F)c2)cc1NC(=O)N(C)c1cc(Nc2cccc(OCCN(C)C)c2)ncn1` [Example 182, N-[3-(3-{6-[3-(2-Dimethylamino-ethoxy)-phenylamino]-pyrimidin-4-yl}-3-methyl-ureido)-4-methyl-phenyl]-3-trifluoromethyl-benzamide], the inhibition at 10 µM lay in the range of 87 to 100% at KDR, 56 to 98% at FGFR3 (K650E) and 79 to 100% against c-Abl.
As for `Cc1ccc(NC(=O)c2cccc(C(F)(F)F)c2)cc1NC(=O)Nc1cc(Nc2ccc(OCCCN(C)C)cc2)ncn1` [Example 177, N-[3-(3-{6-[4-(3-Dimethylamino-propoxy)-phenylamino]-pyrimidin-4-yl}-ureido)-4-methyl-phenyl]-3-trifluoromethyl-benzamide], the inhibition at 10 µM was in the range of 87 to 100% on KDR, 56 to 98% at FGFR3 (K650E) and 79 to 100% on c-Abl.
As to `CCN(CC)CCOc1ccc(Nc2cc(N(C)C(=O)Nc3cc(NC(=O)c4cccc(C(F)(F)F)c4)ccc3C)ncn2)cc1` [Example 183, N-[3-(3-{6-[4-(2-Diethylamino-ethoxy)-phenylamino]-pyrimidin-4-yl}-3-methyl-ureido)-4-methyl-Phenyl]-3-trifluoromethyl-benzamide], the results for the inhibition at 10 µM at KDR, on FGFR3 (K650E) and on c-Abl were 87 to 100%, 56 to 98% and 79 to 100%, respectively.
On to `CC(=O)Nc1cc(N(C)C(=O)Nc2cc(NC(=O)c3ccc(CN4CCN(C)CC4)c(C(F)(F)F)c3)ccc2C)ncn1` [Example 202, N-[3-[3-(6-Acetylaminopyrimidin-4-yl)-3-methylureido]-4-methylphenyL]-4-(4-methylpiperazin-1-ylmethyl)-3-trifluoromethylbenzamide], for which the results for the inhibition at 10 µM on KDR, at FGFR3 (K650E) and against c-Abl were 87 to 100%, 56 to 98% and 79 to 100%, respectively.
Turning to `CCN(C(=O)Nc1cc(NC(=O)c2cccc(C(F)(F)F)c2)ccc1C)c1cc(Nc2ccc(N3CCN(C)CC3)cc2)ncn1` [Example 192, N-[3-(3-Ethyl-3-{6-[4-(4-methyl-piperazin-1-yl)-phenylamino]-pyrimidin-4-yl}-ureido)-4-methyl-Phenyl]-3-trifluoromethyl-benzamide], the inhibition at 10 µM on KDR lay within 87 to 100%; on FGFR3 (K650E) it was 56 to 98%; at c-Abl, 79 to 100%.
Regarding `COc1ccc(NC(=O)c2ccc(CN3CCN(C)CC3)c(C(F)(F)F)c2)cc1NC(=O)N(C)c1cc(Nc2ccc(N3CCN(C)CC3)cc2)ncn1` [Example 198, N-[4-Methoxy-3-(3-methyl-3-{6-[4-(4-methyl-piperazin-1-yl)-phenyl-amino]-pyrimidin-4-yl}-ureido)-phenyl]-4-(4-methyl-piperazin-1-ylmethyl)-3-trifluoro-methyl-benzamide], the inhibition at 10 µM lay within 87 to 100% on KDR, 56 to 98% at FGFR3 (K650E) and 79 to 100% at c-Abl.
Taken in the same sequence, the figures for `Cc1ccc(NC(=O)c2cccc(C(F)(F)F)c2)cc1NC(=O)Nc1cc(Nc2cccc(OCCN3CCOCC3)c2)ncn1` [Example 180, N-[4-Methyl-3-(3-{6-[3-(2-morpholin-4-yl-ethoxy)-phenylamino]-pyrimidin-4-yl}-ureido)-phenyl]-3-trifluoromethyl-benzamide] were 87 to 100%, 56 to 98% and 79 to 100%.
As to `Cc1ccc(NC(=O)c2cccc(C(F)(F)F)c2)cc1NC(=O)Nc1cc(Nc2cccc(OCCN(C)C)c2)ncn1` [Example 178, N-[3-(3-{6-[3-(2-Dimethylamino-ethoxy)-phenylamino]-pyrimidin-4-yl}-ureido)-4-methyl-phenyl]-3-trifluoromethyl-benzamide], the inhibition at 10 µM at KDR fell in the range of 87 to 100%; at FGFR3 (K650E), 56 to 98%; against c-Abl, 79 to 100%.
For `Cc1ccc(NC(=O)c2cccc(C(F)(F)F)c2)cc1NC(=O)Nc1cc(Nc2ccccc2)ncn1` [Example 173, N-{4-Methyl-3-[3-(6-phenylamino-pyrimidin-4-yl)-ureido]-phenyl}-3-trifluoromethyl-benzamide], the figures for the inhibition at 10 µM on KDR, on FGFR3 (K650E) and against c-Abl were 87 to 100%, 56 to 98% and 79 to 100%, respectively.
Consider `Cc1ccc(NC(=O)c2cccc(C(F)(F)F)c2)cc1NC(=O)Nc1cc(Nc2cccc(N3CCN(C)CC3)c2)ncn1` [Example 175, N-[4-Methyl-3-(3-{6-[3-(4-methyl-piperazin-1-yl)-phenylamino]-pyrimidin-4-yl}-ureido)-phenyl]-3-trifluoromethyl-benzamide], for which the results for the inhibition at 10 µM at KDR, on FGFR3 (K650E) and against c-Abl were 87 to 100%, 56 to 98% and 79 to 100%, respectively.
As to `COc1ccc(NC(=O)c2cccc(C(F)(F)F)c2)cc1NC(=O)N(C)c1cc(Nc2ccc(N3CCN(C)CC3)cc2)ncn1` [Example 197, N-[4-Methoxy-3-(3-methyl-3-{6-[4-(4-methyl-Piperazin-1-yl)-phenylamino]-pyrimidin-4-yl}-ureido)-phenyl]-3-trifluoromethyl-benzamide], the results for the inhibition at 10 µM on KDR, at FGFR3 (K650E) and against c-Abl were 87 to 100%, 56 to 98% and 79 to 100%, respectively.
On the same counts, the results for `COc1ccc(N)cc1NC(=O)N(C)c1cc(Nc2ccc(N3CCN(C)CC3)cc2)ncn1` [Example 196, 3-(5-Amino-2-methoxy-phenyl)-1-methyl-1-{6-[4-(4-methyl-piperazin-1-yl)-phenylamino]-pyrimidin-4-yl}-urea] are 87 to 100%, 56 to 98% and 79 to 100%.
On to `Cc1ccc(NC(=O)c2cccc(C(F)(F)F)c2)cc1NC(=O)N(CCc1ccccn1)c1cc(Nc2ccc(N3CCN(C)CC3)cc2)ncn1` [Example 191, N-[4-Methyl-3-[3-{6-[4-(4-methyl-piperazin-1-yl)-phenylamino]-pyrimid-in-4-yl]-3-(2-pyridin-2-yl-ethyl)-ureido]-phenyl}-3-trifluoromethyl-benzamide], for which the inhibition at 10 µM is 87 to 100% on KDR, 56 to 98% at FGFR3 (K650E) and 79 to 100% against c-Abl.
With `Cc1ccc(NC(=O)c2cccc(C(F)(F)F)c2)cc1NC(=O)N(C)c1cc(Nc2ccc(OCCN3CCN(C)CC3)cc2)ncn1` [Example 184, N-{4-Methyl-3-[3-methyl-3-(6-{4-[2-(4-methyl-piperazin-1-yl)-ethoxy]-phenylamino}-pyrimidin-4-yl)-ureido]-phenyl}-3-trifluoromethyl-benzamide], the values for the inhibition at 10 µM at KDR, on FGFR3 (K650E) and on c-Abl were 87 to 100%, 56 to 98% and 79 to 100%, respectively.
In the case of `COc1cc(NC(=O)c2ccc(C)c(C(F)(F)F)c2)cc(NC(=O)N(C)c2cc(Nc3ccc(N4CCN(C)CC4)cc3)ncn2)c1` [Example 201, N-[3-Methoxy-5-(3-methyl-3-{6-[4-(4-methyl-piperazin-1-yl)-phenyl-amino]-pyrimidin-4-yl}-ureido)-phenyl]-4-methyl-3-trifluoromethyl-benzamide], the inhibition at 10 µM lay within 87 to 100% at KDR, 56 to 98% at FGFR3 (K650E) and 79 to 100% against c-Abl.
